Laboratory results: patent US11897883B1, “Pyrrolo[3,2-c][1,6]naphthyridine-2-carboxylic acid compounds as CK2 inhibitors” (KING FAISAL UNIVERSITY, priority 2023, dated 2024)

Experiments:
[1] = target: T1, recombinant human CK2 (RRββ-holoenzyme) (Homo sapiens, UniProt P68400); assay: CK2 Kinase Assay (33P-ATP, substrate peptide RRRDDDSDDD); type: biochemical; conditions: final ATP 15 μM, 10 min at 30 °C; read-out: protein kinase CK2 IC50
T1 construct: purchased Millipore
Method: CK2 Kinase Assay was conducted using the protocol as described in Pierre F. et al.; J. Med. Chem. 2011, 54, 635-654. The tested compounds in aqueous solution were added at a volume of 10 μL to a reaction mixture comprising 10 μL of assay dilution buffer (ADB; 20 mM MOPS, pH 7.2, 25 mM β-glycerol phosphate, 5 mM EGTA, 1 mM sodium orthovanadate, and 1 mM dithiothreitol), 10 μL of substrate peptide (RRRDDDSDDD, dissolved in ADB at a concentration of 1mM), 10 μL of recombinant human CK2 (RRββ-holoenzyme, 25 ng dissolved in ADB; Millipore). Reactions were initiated by the addition of 10 μL of ATP solution (90% 75 mMMgCl2, 75 μM ATP (final ATP concentration:15 μM) dissolved in ADB; 10% [γ-33P] ATP (stock 1 mCi/100 μL; 3000 Ci/mmol (Perkin-Elmer) and maintained for 10 min at 30 ° C. The reactions were quenched with 100 μL of 0.75% phosphoric acid and then transferred to and filtered through a phosphor cellulose filter plate (Millipore). After washing each well five times with 0.75% phosphoric acid, the plate was dried under vacuum for 5 min and, following the addition of 15 μL of scintillation fluid to each well, the residual radioactivity was measured using a Wallac luminescence counter. The IC50 values were derived from eight concentrations of test inhibitors.

MIAPaCa-2 (pancreas) = assay: In vitro cytotoxic activity MTT assay, MIAPaCa-2; type: cell-based; conditions: Homo sapiens, MIA PaCa-2, 96 hours exposure, read-out: IC50, concentration eliciting a 50% inhibition of cell proliferation
Method: (§1) Compounds 1-16 were screened for their in vitro cytotoxic activity utilizing a 3-(4,5-dimethyl-thiazol-2-yl)-2,5-diphenyltetrazolium bromide (MTT) assay against selected cancer human cell lines consisting of PC3 (prostate), HCT116 (colon), A375 (melanoma), H1299 (lung), MIAPaCa-2 (pancreas), HL60 (leukemia), MCF7 (breast), MDA-MB-231 (breast) (T. Mosmann, J. Immunol. Meth., 1983, 65, 55-63). The cells were cultured at 37° C. in RMPI1640 medium supplemented with 10% fetal bovine serum, 50 IU/mL penicillin, and 50 μg/mL streptomycin in a 5% CO2 incubator. All cells were sub-cultured 3 times/week by trypsinisation. Viable cells were seeded and allowed to adhere for 12 h before a test drug was added in 96-well plates at an initial density of 1.0×10^5 cells/mL. Tumour cell lines were separately exposed to various concentrations of the tested compounds followed by incubation at a temperature of 37° C. during 96 h inside a medium of fresh RMPI 1640. Cells were subsequently incubated at 37° C. using MTT at 0.5 mg/mL during 4 h. After removal of supernatant, formazan crystals were dissolved in isopropanol and the optical density was measured at 570 nm. CX-4945 was used as a positive control.

MDA-MB-231 (breast) = assay: In vitro cytotoxic activity MTT assay, MDA-MB-231; type: cell-based; conditions: Homo sapiens, 96 hours exposure, read-out: IC50, concentration eliciting a 50% inhibition of cell proliferation
Method: as §1

H1299 (lung) = assay: In vitro cytotoxic activity MTT assay, H1299; type: cell-based; conditions: Homo sapiens, NCI-H1299, 96 hours exposure, read-out: IC50, concentration eliciting a 50% inhibition of cell proliferation
Method: as §1

HL60 (leukemia) = assay: In vitro cytotoxic activity MTT assay, HL60; type: cell-based; conditions: Homo sapiens, HL-60, 96 hours exposure, read-out: IC50, concentration eliciting a 50% inhibition of cell proliferation
Method: as §1

PC3 (prostate) = assay: In vitro cytotoxic activity MTT assay, PC3; type: cell-based; conditions: Homo sapiens, 96 hours exposure, read-out: IC50, concentration eliciting a 50% inhibition of cell proliferation
Method: as §1

HCT116 (colon) = assay: In vitro cytotoxic activity MTT assay, HCT116; type: cell-based; conditions: Homo sapiens, HCT-116, 96 hours exposure, read-out: IC50, concentration eliciting a 50% inhibition of cell proliferation
Method: as §1

MCF7 (breast) = assay: In vitro cytotoxic activity MTT assay, MCF7; type: cell-based; conditions: Homo sapiens, 96 hours exposure, read-out: IC50, concentration eliciting a 50% inhibition of cell proliferation
Method: as §1

A375 (melanoma) = assay: In vitro cytotoxic activity MTT assay, A375; type: cell-based; conditions: Homo sapiens, A-375, 96 hours exposure, read-out: IC50, concentration eliciting a 50% inhibition of cell proliferation
Method: as §1

T1 sequence (P68400 whole entry): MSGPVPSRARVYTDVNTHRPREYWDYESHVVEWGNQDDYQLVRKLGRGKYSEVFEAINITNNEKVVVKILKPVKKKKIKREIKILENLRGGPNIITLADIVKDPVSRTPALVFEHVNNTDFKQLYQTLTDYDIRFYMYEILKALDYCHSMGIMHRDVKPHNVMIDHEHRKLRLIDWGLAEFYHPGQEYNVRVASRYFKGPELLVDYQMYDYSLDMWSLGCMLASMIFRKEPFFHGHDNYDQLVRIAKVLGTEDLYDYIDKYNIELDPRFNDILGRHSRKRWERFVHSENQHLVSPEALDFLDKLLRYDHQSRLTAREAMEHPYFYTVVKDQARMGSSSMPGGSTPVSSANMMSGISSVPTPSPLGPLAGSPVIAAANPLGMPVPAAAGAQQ
T1 sequence (P67870 whole entry partner): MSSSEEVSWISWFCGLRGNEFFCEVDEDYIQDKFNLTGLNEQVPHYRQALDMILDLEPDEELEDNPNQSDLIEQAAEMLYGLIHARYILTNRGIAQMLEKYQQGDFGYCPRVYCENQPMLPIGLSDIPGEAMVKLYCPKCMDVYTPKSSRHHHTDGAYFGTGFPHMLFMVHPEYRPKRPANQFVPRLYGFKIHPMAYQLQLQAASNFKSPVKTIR

## O=C(O)c1cc2c(Nc3cccc(Cl)c3)nc3ccncc3c2[nH]1 [Compound 1, 4-((3-chlorophenyl)amino)-1H-pyrrolo[3,2-c][1,6]naphthyridine-2-carboxylic acid]
[1]
  IC50: 0.026 µM
MIAPaCa-2 (pancreas)
  IC50: 1.1 µM
MDA-MB-231 (breast)
  IC50: 3.7 µM
H1299 (lung)
  IC50: 1.4 µM
HL60 (leukemia)
  IC50: 2.5 µM
PC3 (prostate)
  IC50: 2.1 µM
HCT116 (colon)
  IC50: 1.3 µM
MCF7 (breast)
  IC50: 4.2 µM
A375 (melanoma)
  IC50: 2.9 µM
